Measurements from patent publication US20070128217A1 (priority 2003, published 2007).

Key:
[1] = system: antibodies in sera from SARS patients (sera 1a, 1b, 2, 6, 37, 62, London, SARS-yellow, SARS-green); assay type: binding, human; design: Binding of serum 6 to linear peptides of protein X1 of SARS-CoV Urbani / Binding of serum 37 to linear peptides of protein X1 of SARS-CoV Urbani / Binding of serum 6 to looped/cyclic peptide (PEPSCAN-ELISA) / Binding of serum 37 to looped/cyclic peptide (PEPSCAN-ELISA) / Binding of serum 37 to looped/cyclic peptides of protein X1 of SARS-CoV Urbani / Binding of serum 6 to linear peptides of protein X2 / Binding of serum 37 to linear peptides of protein X2 / Binding of serum 37 to looped/cyclic peptides of protein X2 of SARS-CoV Urbani / Binding of serum 6 to linear peptides of protein M of SARS-CoV Urbani / Binding of serum 37 to linear peptides of protein M of SARS-CoV Urbani / Binding of serum 6 to looped/cyclic peptides of protein M of SARS-CoV Urbani / Binding of serum 37 to looped/cyclic peptides of protein M of SARS-CoV Urbani / Binding of serum 6 to linear peptides of protein X3 of SARS-CoV Urbani / Binding of serum 37 to linear peptides of protein X3 of SARS-CoV Urbani / Binding of serum 37 to looped/cyclic peptides of protein X3 of SARS-CoV Urbani / Binding of serum 6 to linear peptides of protein X4 of SARS-CoV Urbani / Binding of serum 37 to linear peptides of protein X4 of SARS-CoV Urbani / Binding of serum 37 to looped/cyclic peptides of protein X4 of SARS-CoV Urbani / Binding of serum 6 to linear peptides of protein X5 of SARS-CoV Urbani / Binding of serum 37 to linear peptides of protein X5 of SARS-CoV Urbani / Binding of serum 37 to looped/cyclic peptides of protein X5 of SARS-CoV Urbani / Binding of serum 6 to linear peptides of protein N of SARS-CoV Urbani / Binding of serum 37 to linear peptides of protein N of SARS-CoV Urbani / Binding of serum 6 to linear peptide (PEPSCAN-ELISA) / Binding of serum 1a to looped/cyclic peptides of protein N of SARS-CoV Urbani / Binding of serum 1b to looped/cyclic peptides of protein N of SARS-CoV Urbani / Binding of serum 2 to looped/cyclic peptides of protein N of SARS-CoV Urbani / Binding of serum 6 to looped/cyclic peptides of protein N of SARS-CoV Urbani / Binding of serum 37 to looped/cyclic peptides of protein N of SARS-CoV Urbani / Binding of serum 62 to looped/cyclic peptides of protein N of SARS-CoV Urbani / Binding of serum London to looped/cyclic peptides of protein N of SARS-CoV Urbani / Binding of serum SARS-green to looped/cyclic peptides of protein N of SARS-CoV Urbani: unit not given here
[2] = system: control sera (pooled serum of ten healthy LUMC hospital workers; commercial negative donor pooled serum from the Dutch bloodbank); assay type: binding, human; design: Binding of Control serum LUMC to linear peptides / Binding of Control serum Blood-bank to linear peptides / Binding of Control serum LUMC to looped peptides / Binding of Control Serum Blood-Bank to Looped peptides / Binding of Control serum LUMC to linear peptides of the protein M of SARS-CoV Urbani / Binding of Control serum Blood-bank to linear peptides of the protein M of SARS-CoV Urbani / Binding of Control serum LUMC to looped peptides of the protein M of SARS-CoV Urbani / Binding of Control Serum Blood-Bank to Looped peptides of the protein M of SARS-CoV Urbani: unit not given here
[3] = system: rabbit serum obtained by immunizing a rabbit with the SARS-CoV strain Frankfurt 1; assay type: binding; design: Binding of a rabbit serum to linear peptides / Binding of a rabbit serum to looped peptides / Rabbit serum linear peptides / Rabbit serum looped peptides / Binding of a rabbit serum to linear peptides of protein N of SARS-CoV Urbani (Rabbit serum linear peptides) / Binding of a rabbit serum to looped/cyclic peptides of protein N of SARS-CoV Urbani (Rabbit serum looped peptides): unit not given here

| Sequence | Binding of serum 1a to looped/cyclic peptide (PEPSCAN-ELISA) [1] | Binding of serum 1b to looped/cyclic peptide (PEPSCAN-ELISA) [1] | Binding of serum 2 to looped/cyclic peptide (PEPSCAN-ELISA) [1] | Binding of serum 6 to looped/cyclic peptide (PEPSCAN-ELISA) [1] | Binding of serum 37 to looped/cyclic peptide (PEPSCAN-ELISA) [1] | Binding of serum 62 to looped/cyclic peptide (PEPSCAN-ELISA) [1] | Binding of serum London to looped/cyclic peptide (PEPSCAN-ELISA) [1] | Binding of serum SARS-green to looped/cyclic peptide (PEPSCAN-ELISA) [1] | Binding of serum SARS-yellow to looped/cyclic peptide (PEPSCAN-ELISA) [1] | Binding of Control Serum Blood-Bank to Looped peptides [2] | Binding of Control serum Blood-bank to linear peptides [2] | Binding of Control serum LUMC to linear peptides [2] | Binding of Control serum LUMC to looped peptides [2] | Binding of a rabbit serum to linear peptides [3] | Binding of a rabbit serum to looped peptides [3] | also measured |
| --- | --- | --- | --- | --- | --- | --- | --- | --- | --- | --- | --- | --- | --- | --- | --- | --- |
| WKCKSKNPLLYDANY | 0.6 | 0.5 | 0.4 | 0.3 | 0.6 | 0.6 | 0.2 | 0.3 | 0.5 | 0.6 | 0.7 | 0.8 | 0.5 | 0.1 | 0.6 | Binding of serum 1a to linear peptides of protein X1 of SARS-CoV Urbani [1]: 0.8; Binding of serum 1b to linear peptides of protein X1 of SARS-CoV Urbani [1]: 0.8; Binding of serum 2 to linear peptides of protein X1 of SARS-CoV Urbani [1]: 0.6; Binding of serum 6 to linear peptides of protein X1 of SARS-CoV Urbani [1]: 0.7; Binding of serum 37 to linear peptides of protein X1 of SARS-CoV Urbani [1]: 0.8; Binding of serum 62 to linear peptides of protein X1 of SARS-CoV Urbani [1]: 0.7; Binding of serum London to linear peptides of protein X1 of SARS-CoV Urbani [1]: 0.3; Binding of serum SARS-green to linear peptides of protein X1 of SARS-CoV Urbani [1]: 0.4; Binding of serum SARS-yellow to linear peptides of protein X1 of SARS-CoV Urbani [1]: 0.5 |
| WLCALGKVLPFHRWH | – | – | – | – | – | – | – | – | – | 0.4 | 0.9 | 0.6 | 0.6 | – | – | Binding of serum 1a to linear peptides of protein X5 of SARS-CoV Urbani [1]: 0.7; Binding of serum 1a to looped/cyclic peptides of protein X5 of SARS-CoV Urbani [1]: 0.5; Binding of serum 1b to linear peptides of protein X5 of SARS-CoV Urbani [1]: 0.6; Binding of serum 1b to looped/cyclic peptides of protein X5 of SARS-CoV Urbani [1]: 0.4; Binding of serum 2 to linear peptides of protein X5 of SARS-CoV Urbani [1]: 0.7; Binding of serum 2 to looped/cyclic peptides of protein X5 of SARS-CoV Urbani [1]: 0.6; Binding of serum 6 to linear peptides of protein X5 of SARS-CoV Urbani [1]: 0.8; Binding of serum 6 to looped/cyclic peptides of protein X5 of SARS-CoV Urbani [1]: 0.7; Binding of serum 37 to linear peptides of protein X5 of SARS-CoV Urbani [1]: 0.7; Binding of serum 37 to looped/cyclic peptides of protein X5 of SARS-CoV Urbani [1]: 0.5; Binding of serum 62 to linear peptides of protein X5 of SARS-CoV Urbani [1]: 0.8; Binding of serum 62 to looped/cyclic peptides of protein X5 of SARS-CoV Urbani [1]: 0.7; Binding of serum London to linear peptides of protein X5 of SARS-CoV Urbani [1]: 0.8; Binding of serum London to looped/cyclic peptides of protein X5 of SARS-CoV Urbani [1]: 0.5; Binding of serum SARS-green to linear peptides of protein X5 of SARS-CoV Urbani [1]: 0.6; Binding of serum SARS-green to looped/cyclic peptides of protein X5 of SARS-CoV Urbani [1]: 0.5; Binding of serum SARS-yellow to linear peptides of protein X5 of SARS-CoV Urbani [1]: 0.2; Binding of serum SARS-yellow to looped/cyclic peptides of protein X5 of SARS-CoV Urbani [1]: 0.6; Rabbit serum linear peptides [3]: 0.6; Rabbit serum looped peptides [3]: 0.8 |
| WLCWKCKSKNPLLYD | 0.8 | 0.6 | 0.6 | 0.6 | 0.9 | 0.7 | 0.3 | 0.4 | 0.6 | 0.7 | 0.6 | 0.7 | 0.8 | 0.2 | 0.6 | Recognition of the peptide by sera of SARS-CoV infected individuals, and form (linear, looped/cyclic) in which it is recognized [1]: recognized in linear form |
